Legend:
Assay type in all cases: cell-based
[1] = tested on: P. aeruginosa strain PAO1; test: Biofilm prevention screen (96-well microplate, crystal violet); conditions: Pseudomonas aeruginosa, positive = prevention, negative = enhancement of biofilm formation, quadruplicate, read-out: average percentage reduction of biofilm formed relative to DMSO controls
Method: (§1) Overnight cultures of 3 mL are made of P. aeruginosa strain PAO1 (grown in R2A medium (Handbook of Microbiological Media; CRC Press, 1997, second edition, R. M. Atlas, ed.), modified to omit Mg^2+ but to include 0.3–0.5% fructose (pH 7.0) and 3 μM ferrous ammonium sulfate), P. fluorescens strain ATCC 13525 (grown in R2A modified to omit Mg^2+ but to include 0.3–0.5% sodium pyruvate (pH 7.0)), S. epidermidis strain ATCC 35984 (grown in a ¼ dilution of TSB (Handbook of Microbiological Media; CRC Press, 1997, second edition, R. M. Atlas, ed.) supplemented with 1% fructose (pH 7.0) and 3 μM ferrous ammonium sulfate). To each type of growth medium, HEPES (pH 7.3) is optionally added to a final concentration of 10 mM.
(§2) To PS, PVC, or PP (preferably PP or PVC) round-bottom, 96-well microplates containing 100 μl per well of the respective growth medium as described above, compounds to be tested (dissolved in DMSO) are added and mixed, to give a final concentration of 250–500 μM. These microplates then also are used to make successive dilutions of the compounds in the same respective growth medium to yield microplates containing final concentrations of, for example, 160 μM and 32 μM of the same set of compounds. Control wells are included in the dilution series that contain only DMSO. From the 3 ml overnight cultures, each of the three dilution plate sets is inoculated with 5 μl per well of a 1:1 dilution in the same liquid growth media of the appropriate culture. The covered plate is then incubated with shaking, at 30° C. (for P. aeruginosa or P. fluorescens) or 37° C. (for S. epidermidis), at 200 rpm, for 16–26 hours, in a humidity controlled environment.
(§3) Cells present in biofilm attached to the microplate surface are stained with CV either after removal of the liquid from each well, followed by rinsing three times (aspiration and addition) with 150 μl per well phosphate buffered saline solution (PBS) and final addition of 100 μl per well of PBS, or by direct addition of stain to bacterial cultures without rinsing. To 100 μl per well of PBS or of bacterial culture, 25 μl/well of 1% CV solution (in ˜10% ethanol) is added. After incubation at room temperature for 45 minutes, the dye solution is removed from the plates. Residual dye is immediately removed by gentle rinsing with a stream of deionized water by filling and inverting the plates 4–5 times, or by using an automated pipettor. Rinsed plates are air-dried at room temperature for 0.5–2 hours. Bound dye is extracted by the addition of 150 μL per well of 95% ethanol, followed by vigorous mixing for 10–15 seconds and incubation for 45 minutes at room temperature without shaking. Subsequently, either undiluted or diluted (in ethanol) samples of extracted CV are transferred to flat bottom, polystyrene microtiter plates and absorbances at 586 nm were measured in a microplate reader. Readings from wells containing compounds are compared to the average of data from control wells that contain only DMSO. Replicate samples are measured, and results are reported as averages of the replicate well data points.
(§4) Data are expressed in terms of the average percentage reduction of biofilm formed in the presence of each compound, relative to the DMSO controls, for quadruplicate samples. Assays are run using the three compound concentrations indicated. Positive numbers indicate prevention of biofilm formation by a compound, and negative numbers indicate enhancement of biofilm formation by a compound (percentage coefficients of variation are ≦10%).

[2] = tested on: P. fluorescens strain ATCC 13525; test: as above; conditions: Pseudomonas fluorescens, positive = prevention, negative = enhancement of biofilm formation, quadruplicate, read-out: average percentage reduction of biofilm formed relative to DMSO controls; for inhibition at 32 µM: ATCC13525, 32 μM; for inhibition at 160 µM: ATCC13525, 160 μM; for inhibition at 390 µM: ATCC13525, 390 μM
Method: as §1, §2, §3, §4

[3] = tested on: S. epidermidis strain ATCC 35984; test: as above; conditions: Staphylococcus epidermidis, positive = prevention, negative = enhancement of biofilm formation, quadruplicate, read-out: average percentage reduction of biofilm formed relative to DMSO controls; for inhibition at 32 µM: ATCC35984, 32 μM; for inhibition at 160 µM: ATCC35984, 160 μM; for inhibition at 390 µM: ATCC35984, 390 μM
Method: as §1, §2, §3, §4

[4] = tested on: P. aeruginosa strain PAO1; test: Improved biofilm dispersion screen (already-formed biofilms, crystal violet); conditions: Pseudomonas aeruginosa, 30 mM NaOH step, positive = dispersion, negative = enhancement of pre-existing biofilm, quadruplicate, read-out: average percentage reduction of biofilm relative to the two control values (dispersion)
Method: (§5) A modification of method disclosed in Reference Example 2, which greatly improves the sensitivity and reproducibility of the dispersion screen is hereby disclosed. […] In the modification described herein, compounds are added in the presence of the fresh liquid growth media, such that the resultant biofilms continue to grow, unless a test compound triggers their dispersion. Overnight cultures are made as above, and 100 μL of the appropriate liquid growth media are dispensed into duplicate 96 well microplates—in this fashion, two identical microplates are set up for each bacterial species to be assayed. Neither compounds nor DMSO are added prior to the inoculation of bacteria, and growth in the duplicate plates for 24 hours is allowed using the conditions specified in Reference Example 1. After growth of biofilm to be tested in the wells, cells present in biofilm attached to one of the duplicate microplates is stained with CV, quantitated as described in Reference Example 1, and the data for the entire plate averaged, resulting in a growth control value, t0. The remaining replicate of each microplate pairs is treated with compounds in DMSO, or DMSO alone for control wells, by first removing the cell suspensions from the wells, then adding fresh 100 μL volumes of the same appropriate liquid growth media, followed by direct addition and mixing of the compound DMSO solutions to give final compound concentrations of 390 μM. Incubation of the compound-containing microplates is then continued for an additional 22–26 hours using the same conditions described in Reference Example 1. Cell suspensions are then removed, 100 μL per well of a 0 mM NaOH (S. epidermidis), 20 mM NaOH (P. fluorescens), or 30 mM NaOH (P. aeruginosa) solution in PBS is added, and incubation at room temperature is allowed for 30 minutes. No addition of NaOH is made to the S. epidermidis suspension since a test assay indicated no amplification by base with S. epidermidis. The microplates are subsequently rinsed three times with 150 μL per well of PBS, followed by final liquid removal, staining with CV and quantitation as described in Reference Example 1. Data for each well that contained compound result in a compound value, R, and data for control wells that contained DMSO only are averaged to generate a second control value, t24. The effect of each compound tested on dispersion of the biofilm compared to the two control values is calculated thus: [formula] […] Data are expressed in terms of the average percentage reduction of biofilm formed in the presence of each compound, relative to the two control values, for quadruplicate samples. Assays are run as described above, using compound concentrations of 390 μM. Positive numbers indicate dispersion (reduction) of pre-existing biofilms by a compound, and negative numbers indicate enhancement (stimulation of growth) of pre-existing biofilms by a compound (percentage coefficients of variation are ≦15%).

[5] = tested on: P. fluorescens strain ATCC 13525; test: as above; conditions: Pseudomonas fluorescens, ATCC13525, 20 mM NaOH step, positive = dispersion, negative = enhancement of pre-existing biofilm, quadruplicate, read-out: average percentage reduction of biofilm relative to the two control values (dispersion)
Method: as §5

[6] = tested on: S. epidermidis strain ATCC 35984; test: as above; conditions: Staphylococcus epidermidis, ATCC35984, no NaOH, positive = dispersion, negative = enhancement of pre-existing biofilm, quadruplicate, read-out: average percentage reduction of biofilm relative to the two control values (dispersion)
Method: as §5

Compound | inhibition at 32 µM [1] [%] | inhibition at 160 µM [1] [%] | inhibition at 390 µM [1] [%] | inhibition at 32 µM [2] [%] | inhibition at 160 µM [2] [%] | inhibition at 390 µM [2] [%] | inhibition at 32 µM [3] [%] | inhibition at 160 µM [3] [%] | inhibition at 390 µM [3] [%] | inhibition at 390 µM [4] [%] | inhibition at 390 µM [5] [%] | inhibition at 390 µM [6] [%]
CCCCCCCCCCNC(=O)[C@@H]1CCN1C(=O)OC(C)(C)C [Compound 285, N-(tert-Butoxycarbonyl)-(S)-(−)-2-azetidinecarboxylic acid n-decyl amide] | 7 | -20 | -21 | -12 | -44 | -32 | 2 | 17 | 66 | -37 | -74 | 0
CCCCCCCCNC(=O)[C@H]1CCCCN1C(=O)OC(C)(C)C [Compound 22, (R)-(+)-1-(tert-Butoxycarbonyl)-2-piperidinecarboxylic acid n-octyl amide] | 0 | -8 | -6 | 3 | 27 | 25 | -6 | -17 | 3 | -54 | 0 | 0
CCCCCCNC(=O)[C@@H]1CCCN1 [Compound 30] | 2 | 9 | 18 | 11 | 11 | 19 | -12 | -7 | -6 | 1 | 20 | -11
CCCCCCNC(=O)[C@H]1CCCN1 [Compound 163] | 1 | 22 | 46 | 5 | 6 | 22 | -3 | -5 | -10 | 4 | 12 | -5
CCCCCCCCNC(=O)[C@@H]1CCN1 [Compound 288] | 12 | 97 | 96 | -14 | 40 | 59 | 101 | 101 | 99 | -32 | -2 | 72
CCCCNC(=O)[C@H]1CCCN1C(=O)OC(C)(C)C [Compound 152] | -4 | -9 | 2 | 5 | 5 | -7 | -5 | -13 | -8 | -9 | 1 | -4
CCCCNC(=O)[C@@H]1CCCN1C(=O)OC(C)(C)C [Compound 155] | -5 | 2 | 6 | 10 | 4 | 4 | -3 | -1 | 21 | -12 | 3 | -4
CCCCCCCCCCCCNC(=O)[C@@H]1CCCN1C(=O)OC(C)(C)C [Compound 160] | -2 | -44 | -59 | -1 | 0 | -18 | -9 | 20 | 29 | -52 | -44 | 0
CC(C)(C)OC(=O)N1CCC[C@@H]1C(=O)NCCCCCCCCCCCCNC(=O)[C@H]1CCCN1C(=O)OC(C)(C)C [Compound 225, N-(tert-Butoxycarbonyl)-D-proline 1,12-diaminododecane bisamide] | 11 | 7 | -8 | 14 | 0 | -14 | -21 | -24 | -39 | -23 | -85 | 0
